Reference: patent US4740233A, “Substituted 1,2,4-triazolo[1,5-a]-pyrimidine-2-sulfonamides and compositions and methods of controlling undesired vegetation and suppressing the nitrification of ammonium nitrogen in soil” (The Dow Chemical Company, priority 1986, dated 1988)

Experiments:
[1] = test system: nitrification of ammonium nitrogen; assay: Suppression of nitrification of ammonium nitrogen in soil; conditions: 27° C.
Outline: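 Soil (20 g) moistened to its 1/3 bar tension value, mixed with test chemical and incubated sealed for two weeks at 27° C. Nitrate extracted with ammonium sulfate solution and measured by nitrate-specific ion electrode; value given as % NH4-N remaining.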

[2] = test system: annual sugar beet variety (SLC03); assay: Plant growth regulator activity, postemergence; type: in vivo; conditions: for minimal effective concentration: Beta vulgaris, post-emergence, 672 h, 4 weeks after spraying, read-out: Bolting Inhibition (postemergence), concentration with observed effect
Source text: (§1) Using a regular biennial variety, even a bolting-susceptible variety would require a cold treatment of around 10-16 weeks plus a hormone treatement in conjunction with specific light intensities. Thus, for a screening organism, we selected one which would consistently produce bolting on a regular schedule. The screen is run with an annual sugar beet variety (SLC03) provided by Dr. Richard J. Hecker, Fort Collins, Colo. This variety is an inbred which bolts in the 6- to 8-leaf stage without any need for vernalization. This allows the screen to be run entirely in the greenhouse with all 110 chemical compounds tested on one tray. The sugarbeets are grown in 3×3 inch square pots in a greenhouse sandy loam potting mix. The sugarbeets are sprayed with test compounds when they are 2 to 3 weeks old (2 true leaves). The compounds are dissolved in acetone and diluted with water containing Tween 20 as a wetting agent. The concentration of acetone in the final spray is 20% and the concentration of Tween 20 is 0.05 percent. The plants are examined for the appearance of a bolt 4 weeks after spraying.

wheat [3] = assay: Preemergent control of plant species; type: in vivo, Triticum aestivum; conditions: Triticum aestivum, pre-emergence, 336 h; 0.25 lb/acre; read-out: percent preemergent control
Outline: (§2)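 Seeds sown in agricultural soil in greenhouse beds, then aqueous-emulsion compositions applied uniformly to the bed surface at listed rates. Beds kept two weeks under greenhouse growth conditions with watering. Control expressed as growth reduction versus water-treated beds of the same species.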

velvetleaf [4] = assay: Preemergent control of plant species; type: in vivo, Abutilon theophrasti; conditions: Abutilon theophrasti, pre-emergence, 336 h; 0.25 lb/acre; read-out: percent preemergent control
Outline: as §2

yellow nutsedge [5] = assay: Preemergent control of plant species; type: in vivo, Cyperus esculentus; conditions: Cyperus, pre-emergence, 336 h; 0.25 lb/acre; read-out: percent preemergent control
Outline: as §2

yellow foxtail [6] = assay: Preemergent control of plant species; type: in vivo, Setaria lutescens; conditions: Setaria, pre-emergence, 336 h; 0.25 lb/acre; read-out: percent preemergent control
Outline: as §2

sugar beet [7] = assay: Preemergent control of plant species; type: in vivo, Beta saccharifera; conditions: Beta vulgaris, pre-emergence, 336 h; 0.25 lb/acre; read-out: percent preemergent control
Outline: as §2

annual morning glory [8] = assay: Preemergent control of plant species; type: in vivo, Ipomoea spp.; conditions: Ipomoea, pre-emergence, 336 h; 0.25 lb/acre; read-out: percent preemergent control
Outline: as §2

soybean [9] = assay: Preemergent control of plant species; type: in vivo, Glycine max.; conditions: Glycine max, pre-emergence, 336 h; 0.25 lb/acre; read-out: percent preemergent control
Outline: as §2

corn [10] = assay: Preemergent control of plant species; type: in vivo, Zea mays; conditions: Zea mays, pre-emergence, 336 h; 0.25 lb/acre; read-out: percent preemergent control
Outline: as §2

wild oats [11] = assay: Preemergent control of plant species; type: in vivo; conditions: Avena fatua, pre-emergence, 336 h; 0.25 lb/acre; read-out: percent preemergent control
Outline: as §2

cotton [12] = assay: Preemergent control of plant species; type: in vivo, Gossypium spp.; conditions: Gossypium hirsutum, pre-emergence, 336 h; 0.25 lb/acre; read-out: percent preemergent control
Outline: as §2

johnson grass [13] = assay: Preemergent control of plant species; type: in vivo, Sorghum halepense; conditions: Sorghum halepense, pre-emergence, 336 h; 0.25 lb/acre; read-out: percent preemergent control
Outline: as §2

rape [14] = assay: Preemergent control of plant species; type: in vivo, Brassica napus; conditions: Brassica napus, pre-emergence, 336 h; 0.25 lb/acre; read-out: percent preemergent control
Outline: as §2

rice [15] = assay: Preemergent control of plant species; type: in vivo, Oryza sativa; conditions: Oryza sativa, pre-emergence, 336 h; 0.25 lb/acre; read-out: percent preemergent control
Outline: as §2

jimsonweed [16] = assay: Preemergent control of plant species; type: in vivo, Datura stramonium; conditions: Datura stramonium, pre-emergence, 336 h; 0.25 lb/acre; read-out: percent preemergent control
Outline: as §2

barnyardgrass [17] = assay: Preemergent control of plant species; type: in vivo, Echinochloa crusgalli; conditions: Echinochloa crus-galli, pre-emergence, 336 h; 0.25 lb/acre; read-out: percent preemergent control
Outline: as §2

soybean [18] = assay: Postemergent control of plant species; type: in vivo, Glycine max.; conditions: Glycine max, post-emergence, 336 h, read-out: percent postemergent control
Outline: (§3)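 Compounds in acetone mixed 1:1 with water containing 0.1% surfactant, sprayed postemergence on greenhouse plants at the 2-4 leaf stage. Growth reduction versus untreated plants of the same species scored after about two weeks.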

sorghum [19] = assay: Postemergent control of plant species; type: in vivo, Sorghum vulgare; conditions: Sorghum, post-emergence, 336 h, read-out: percent postemergent control
Outline: as §3

johnson grass [20] = assay: Postemergent control of plant species; type: in vivo, Sorghum halepense; conditions: Sorghum halepense, post-emergence, 336 h, read-out: percent postemergent control
Outline: as §3

crabgrass = assay: Postemergent control of plant species; type: in vivo, Digitaria spp.; conditions: Digitaria sanguinalis, post-emergence, 336 h, read-out: percent postemergent control
Outline: as §3

yellow foxtail [21] = assay: Postemergent control of plant species; type: in vivo, Setaria lutescens; conditions: Setaria, post-emergence, 336 h, read-out: percent postemergent control
Outline: as §3

jimsonweed [22] = assay: Postemergent control of plant species; type: in vivo, Datura stramonium; conditions: Datura stramonium, post-emergence, 336 h, read-out: percent postemergent control
Outline: as §3

rape [23] = assay: Postemergent control of plant species; type: in vivo, Brassica napus; conditions: Brassica napus, post-emergence, 336 h, read-out: percent postemergent control
Outline: as §3

cocklebur = assay: Postemergent control of plant species; type: in vivo, Xanthium spp.; conditions: Xanthium strumarium, post-emergence, 336 h, read-out: percent postemergent control
Outline: as §3

pigweed = assay: Postemergent control of plant species; type: in vivo, Amaranthus spp.; conditions: Amaranthus retroflexus, post-emergence, 336 h, read-out: percent postemergent control
Outline: as §3

rice [24] = assay: Postemergent control of plant species; type: in vivo, Oryza sativa; conditions: Oryza sativa, post-emergence, 336 h, read-out: percent postemergent control
Outline: as §3

corn [25] = assay: Postemergent control of plant species; type: in vivo, Zea mays; conditions: Zea mays, post-emergence, 336 h, read-out: percent postemergent control
Outline: as §3

wheat [26] = assay: Postemergent control of plant species; type: in vivo, Triticum aestivum; conditions: Triticum aestivum, post-emergence, 336 h, read-out: percent postemergent control
Outline: as §3

velvetleaf [27] = assay: Postemergent control of plant species; type: in vivo, Abutilon theophrasti; conditions: Abutilon theophrasti, post-emergence, 336 h, read-out: percent postemergent control
Outline: as §3

wild oats [28] = assay: Postemergent control of plant species; type: in vivo, Avena fatua; conditions: Avena fatua, post-emergence, 336 h, read-out: percent postemergent control
Outline: as §3

annual morning glory [29] = assay: Postemergent control of plant species; type: in vivo, Ipomoea spp.; conditions: Ipomoea, post-emergence, 336 h, read-out: percent postemergent control
Outline: as §3

barnyardgrass [30] = assay: Postemergent control of plant species; type: in vivo, Echinochloa crusgalli; conditions: Echinochloa crus-galli, post-emergence, 336 h, read-out: percent postemergent control
Outline: as §3

yellow nutsedge [31] = assay: Postemergent control of plant species; type: in vivo, Cyperus esculentus; conditions: Cyperus, post-emergence, 336 h, read-out: percent postemergent control
Outline: as §3

sugar beet [32] = assay: Postemergent control of plant species; type: in vivo, Beta saccharifera; conditions: Beta vulgaris, post-emergence, 336 h, read-out: percent postemergent control
Outline: as §3

cotton [33] = assay: Postemergent control of plant species; type: in vivo, Gossypium spp.; conditions: Gossypium hirsutum, post-emergence, 336 h, read-out: percent postemergent control
Outline: as §3

[34] = test system: annual sugar beet variety (SLC03); assay: Plant growth regulator activity, preemergence; type: in vivo; conditions: Beta vulgaris, pre-emergence; 6-7 weeks; read-out: Bolting Inhibition (preemergence), concentration with observed effect
Source text: as §1
Preemergence tests are conducted by spraying formulated chemical on seeds placed on potting soil. The sprayed seeds are then covered with 1/4 inch of potting soil and the pots are watered. Bolting is evaluated 6-7 weeks after the initiation of the test. At this time untreated plants have a vigorous bolting stem with visible flowers.

sorghum [35] = assay: Preemergent control of plant species; type: in vivo, Sorghum vulgare; conditions: Sorghum, pre-emergence, 336 h; 0.25 lb/acre; read-out: percent preemergent control
Outline: as §2

Row | Structure (SMILES) | % NH4-N Remaining After 2 Weeks Incubation ([1]; 0.06 ppm) | % NH4-N Remaining After 2 Weeks Incubation ([1]; 0.25 ppm) | % NH4-N Remaining After 2 Weeks Incubation ([1]; 1 ppm) | % NH4-N Remaining After 2 Weeks Incubation ([1]; 4 ppm) | minimal effective concentration [2] | plant injury at 280.212 g/ha (wheat [3]) | pest or weed control at 280.212 g/ha (velvetleaf [4]) | pest or weed control at 280.212 g/ha (yellow nutsedge [5]) | pest or weed control at 280.212 g/ha (yellow foxtail [6]) | plant injury at 280.212 g/ha (sugar beet [7]) | pest or weed control at 280.212 g/ha (annual morning glory [8]) | plant injury at 280.212 g/ha (soybean [9]) | plant injury at 280.212 g/ha (corn [10]) | pest or weed control at 280.212 g/ha (wild oats [11]) | plant injury at 280.212 g/ha (cotton [12]) | pest or weed control at 280.212 g/ha (johnson grass [13]) | plant injury at 280.212 g/ha (rape [14]) | plant injury at 280.212 g/ha (rice [15]) | pest or weed control at 280.212 g/ha (barnyardgrass [17]) | plant injury at 500 ppm (soybean [18]) | also measured
1 | Cc1cc(C)n2nc(S(=O)(=O)Nc3c(Cl)cccc3-c3ccccc3)nc2n1 [Compound 63] | 6% | 6% | 36% | 61% | 5 µg/mL | – | – | – | – | – | – | – | – | – | – | – | – | – | – | – | –
2 | Cc1cc(C)n2nc(S(=O)(=O)Nc3c(C)ccc(Cl)c3C)nc2n1 [Compound 65] | 5% | 52% | 65% | 85% | 12 µg/mL | 0% | 20% | 95% | 95% | 100% | 50% | 100% | 0% | 0% | 0% | 95% | 20% | 30% | 70% | – | pest or weed control at 280.212 g/ha (jimsonweed [16]): 90%
3 | COc1cccc(C=NO)c1NS(=O)(=O)c1nc2nc(C)cc(C)n2n1 [Compound 71] | 35% | 49% | 84% | 90% | – | – | – | – | – | – | – | – | – | – | – | – | – | – | – | 35% | plant injury at 500 ppm (sorghum [19]): 0%; pest or weed control at 500 ppm (johnson grass [20]): 0%; pest or weed control at 500 ppm (crabgrass): 20%; pest or weed control at 500 ppm (yellow foxtail [21]): 0%; pest or weed control at 500 ppm (jimsonweed [22]): 60%; plant injury at 500 ppm (rape [23]): 70%; pest or weed control at 500 ppm (cocklebur): 0%; pest or weed control at 500 ppm (pigweed): 0%; plant injury at 500 ppm (rice [24]): 0%; plant injury at 500 ppm (corn [25]): 0%; plant injury at 500 ppm (wheat [26]): 0%; pest or weed control at 500 ppm (velvetleaf [27]): 70%; pest or weed control at 500 ppm (wild oats [28]): 0%; pest or weed control at 500 ppm (annual morning glory [29]): 0%; pest or weed control at 500 ppm (barnyardgrass [30]): 0%; pest or weed control at 500 ppm (yellow nutsedge [31]): 0%; plant injury at 500 ppm (sugar beet [32]): 70%; plant injury at 500 ppm (cotton [33]): 75%; minimal effective concentration [34]: 400 µg/mL
4 | Cc1cc(C)n2nc(S(=O)(=O)Nc3c(F)cccc3Oc3ccc(C(F)(F)F)cc3Cl)nc2n1 [Compound 98] | 0% | 25% | 0% | 37% | 400 µg/mL | – | – | – | – | – | – | – | – | – | – | – | – | – | – | – | –
5 | CC(C)c1ccn2nc(S(=O)(=O)Nc3c(Cl)cccc3Cl)nc2n1 [Compound 204] | – | – | – | – | 400 µg/mL | 0% | 0% | 0% | 0% | 90% | 0% | 0% | 40% | 0% | 80% | 0% | 40% | 0% | 0% | – | % NH4-N Remaining After 2 Weeks Incubation ([1]; 0.6 ppm): 0%; % NH4-N Remaining After 2 Weeks Incubation ([1]; 1.25 ppm): 0%; % NH4-N Remaining After 2 Weeks Incubation ([1]; 2.5 ppm): 34%; % NH4-N Remaining After 2 Weeks Incubation ([1]; 5 ppm): 56%; % NH4-N Remaining After 2 Weeks Incubation ([1]; 10 ppm): 66%; plant injury at 280.212 g/ha (sorghum [35]): 60%
6 | COC(=O)c1cccc(C)c1N(Cc1ccccc1)S(=O)(=O)c1nc2nc(C)cc(C)n2n1 [Compound 267] | 0% | 0% | 0% | 11% | 400 µg/mL | – | – | – | – | – | – | – | – | – | – | – | – | – | – | 45% | plant injury at 500 ppm (sorghum [19]): 65%; pest or weed control at 500 ppm (johnson grass [20]): 75%; pest or weed control at 500 ppm (crabgrass): 90%; pest or weed control at 500 ppm (yellow foxtail [21]): 70%; pest or weed control at 500 ppm (jimsonweed [22]): 80%; plant injury at 500 ppm (rape [23]): 80%; pest or weed control at 500 ppm (pigweed): 60%; plant injury at 500 ppm (rice [24]): 40%; plant injury at 500 ppm (corn [25]): 0%; plant injury at 500 ppm (wheat [26]): 0%; pest or weed control at 500 ppm (velvetleaf [27]): 95%; pest or weed control at 500 ppm (wild oats [28]): 0%; pest or weed control at 500 ppm (annual morning glory [29]): 90%; pest or weed control at 500 ppm (barnyardgrass [30]): 35%; pest or weed control at 500 ppm (yellow nutsedge [31]): 40%; observed effect (postemergence) ([2]; 400 ppm): stunting; plant injury at 500 ppm (sugar beet [32]): 80%; plant injury at 500 ppm (cotton [33]): 0%
